The values below come from patent publication US8552026B2, “Isatin derivatives, medicaments containing the isatin derivatives and method for its preparation” (King Saud University, priority 2011, dated 2013).

Common to all, as to test: In vitro anti-TB activity, agar dilution method
Type in all cases: cell-based
In general terms: In agar dilution the substance is mixed into plates at graded concentrations.

Test [1] concerns Mycobacterium cheleneo (ATCC 35751). Particulars: ATCC35751, 35° C., 48 hours, read-out: MIC (μg/ml)/Mycobacterium strain M. cheleneo. Here is the method:
(§1) The anti-TB activity of the synthesized compound was tested using the agar dilution method, see T. Aboul-Fadl, F. A. Mohammed, E. A. Hassan, Arch. Pharm. Res. 26 (2003) 778-784 and NCCLS Susceptibility Testing of Mycobacteria, Nocardia, and Other Aerobic Actinomycetes; Tentative Standard NCCLS document M24-T2 [ISBN 1-56238-423-6], second ed., NCCLS, 960 West Valley Road, Suite 1400, Wayne, Pa. 2000, 19087-1898, USA.
(§2) The synthesized compound was solubilized in DMSO at a concentration of 1 mg/ml. Appropriate amount was diluted first with 10% molten agar to give a concentration of 200 μg/ml. Further dilutions for the active compound were done to give 100, 50, 25, 12.5, 6.25 and up to 0.625 μg/ml. The agar and the compound solution were mixed thoroughly and the mixture was poured in Petri-dishes on a level surface to result in an agar depth of 3-4 mm and allowed to harden. The incula were prepared by growing overnight culture in Mueller-Hinton broth. The cultures were diluted 1:100. Test organisms were streaked in a radial pattern and plates were incubated at 35° C. for 48 hours. Control experiments consisted of the tested TB strains, DMSO and the growing media were treated in the same manner. Complete […] of growth was observed prior to declaring the compound to be active. The synthesized compound was evaluated for the antimycobacterial activity in vitro again four Mycobacterium strains: Mycobacterium intercellulari (ATCC35743), Mycobacterium xenopi (ATCC 14470), Mycobacterium cheleneo (ATCC 35751) and Mycobacterium smegmatis (ATCC 35797) by the agar dilution method. Isoniazid (INH) was used as a reference drug and control experiments done using a growth media free from drugs or the tested compound. Results of the in vitro antitubercular activity on the tested compound along with standard drug for comparison are given in table 1.

For test [2], the system named is Mycobacterium intercellulari (ATCC35743). The conditions noted are these: for MIC: Mycobacterium, ATCC35743, agar dilution, 35° C., 48 hours, read-out: MIC (μg/ml)/Mycobacterium strain M. intercellulari. How it is done: as §1, §2
The subject of test [3] is Mycobacterium xenopi (ATCC 14470). Particulars: ATCC14470, 35° C., 48 hours, read-out: MIC (μg/ml)/Mycobacterium strain M. xenopi. How it is done: as §1, §2
Test [4] concerns Mycobacterium smegmatis (ATCC 35797). The conditions noted are these: Mycolicibacterium smegmatis, ATCC35797, 35° C., 48 hours, read-out: MIC (μg/ml)/Mycobacterium strain M. smegmatis. How it is done: as §1, §2

Values after ≈ are worked out from the molar mass of the structure shown.

For the molecule `NNC(=O)c1ccncc1` [INH, Isoniazid, reference compound], the MIC in test [1], in test [2], in test [3] and in test [4] was 12.5 µg/mL (≈ 91.1 µM) each time.
With `CCn1cc(C(=O)NN=C2C(=O)N(Cc3ccccc3)c3ccccc32)c(=O)c2ccc(C)nc21` [R = H; R1 = H, N′-(1-benzyl-2-oxoindolin-3-ylidene)-1-ethyl-1,4-dihydro-7-methyl-4-oxo-1,8-naphthyridine-3-carbohydrazid], the MIC in test [1], in test [2], in test [3] and in test [4] was 0.625 µg/mL (≈ 1.34 µM) in each case. Also, the “potency relative to INH in vitro” value in test [2] (antitubercular activity screening, all four strains, versus first line drug INH) is 20 times.
